Mutagenic call data for six compounds are collected here from PubChem BioAssay AID1259407 (Chemical Carcinogenesis Research Information System (CCRIS), 2018).

Activity calls are given as the source filed them. The rule behind the calls is not given here.

In the data set the test system is CCRIS mutagenicity, Ames/micronucleus/aberration tests. In words: CCRIS mutagenicity studies.
[1] abbreviates: Test System: AMES SALMONELLA TYPHIMURIUM, Strain/Indicator: TA98, Metabolic Activation: HAMSTER, LIVER, S-9, AROCLOR 1254 (10%), Method: PREINCUBATION
The mark [2] stands for this setting: Test System: AMES SALMONELLA TYPHIMURIUM, Strain/Indicator: TA98, Metabolic Activation: NONE, Method: PREINCUBATION
Where [3] appears, read: Test System: AMES SALMONELLA TYPHIMURIUM, Strain/Indicator: TA98, Metabolic Activation: RAT, LIVER, S-9, AROCLOR 1254 (10%), Method: PREINCUBATION
[4] abbreviates: Test System: AMES SALMONELLA TYPHIMURIUM, Strain/Indicator: TA100, Metabolic Activation: HAMSTER, LIVER, S-9, AROCLOR 1254 (10%), Method: PREINCUBATION
Setting [5] is: Test System: AMES SALMONELLA TYPHIMURIUM, Strain/Indicator: TA100, Metabolic Activation: NONE, Method: PREINCUBATION
The mark [6] stands for this setting: Test System: AMES SALMONELLA TYPHIMURIUM, Strain/Indicator: TA100, Metabolic Activation: RAT, LIVER, S-9, AROCLOR 1254 (10%), Method: PREINCUBATION
Setting [7] is: Test System: AMES SALMONELLA TYPHIMURIUM, Strain/Indicator: TA1535, Metabolic Activation: HAMSTER, LIVER, S-9, AROCLOR 1254 (10%), Method: PREINCUBATION
The mark [8] stands for this setting: Test System: AMES SALMONELLA TYPHIMURIUM, Strain/Indicator: TA1535, Metabolic Activation: NONE, Method: PREINCUBATION
Setting [9] is: Test System: AMES SALMONELLA TYPHIMURIUM, Strain/Indicator: TA1535, Metabolic Activation: RAT, LIVER, S-9, AROCLOR 1254 (10%), Method: PREINCUBATION
Setting [10] is: Test System: AMES SALMONELLA TYPHIMURIUM, Strain/Indicator: TA1537, Metabolic Activation: HAMSTER, LIVER, S-9, AROCLOR 1254 (10%), Method: PREINCUBATION
Where [11] appears, read: Test System: AMES SALMONELLA TYPHIMURIUM, Strain/Indicator: TA1537, Metabolic Activation: NONE, Method: PREINCUBATION
The mark [12] stands for this setting: Test System: AMES SALMONELLA TYPHIMURIUM, Strain/Indicator: TA1537, Metabolic Activation: RAT, LIVER, S-9, AROCLOR 1254 (10%), Method: PREINCUBATION
The mark [13] stands for this setting: Test System: AMES SALMONELLA TYPHIMURIUM, Strain/Indicator: TA100, Metabolic Activation: NONE, Method: STANDARD PLATE.

With `CC(=O)c1c(=O)cc(C)oc1=O`, the mutagenic call is, setting by setting: (End Point: IN VIVO MICRONUCLEUS, Test System: BONE MARROW POLYCHROMATIC ERYTHROCYTES, Species: MOUSE, Strain/Sex: DDY/MALE, Route: IP) “active; positive”; (Test System: AMES SALMONELLA TYPHIMURIUM, Strain/Indicator: TA97A, Metabolic Activation: NONE, Method: PREINCUBATION) “inactive; negative”; (Test System: AMES SALMONELLA TYPHIMURIUM, Strain/Indicator: TA97A, Metabolic Activation: RAT, LIVER, S-9, AROCLOR 1254, Method: PREINCUBATION) “inactive; negative”; under setting [1], “inactive; negative”; under setting [2], “inactive; negative”; under setting [3], “inactive; negative”. Besides, the mutagenic call reads like this: under setting [4], “inactive; negative”; under setting [5], “inactive; negative”; under setting [6], “inactive; negative”; (Test System: AMES SALMONELLA TYPHIMURIUM, Strain/Indicator: TA102, Metabolic Activation: NONE, Method: PREINCUBATION) “inactive; negative”; (Test System: AMES SALMONELLA TYPHIMURIUM, Strain/Indicator: TA102, Metabolic Activation: RAT, LIVER, S-9, AROCLOR 1254, Method: PREINCUBATION) “inactive; negative”; under setting [7], “inactive; negative”. Also, the mutagenic call is “inactive; negative” under setting [8]; “inactive; negative” under setting [9]; “inactive; negative” under setting [10]; “inactive; negative” under setting [11]; “inactive; negative” under setting [12].
Take `Clc1nncc2ccccc12`: the mutagenic call reads like this: under setting [2], “inactive; negative”; (Test System: AMES SALMONELLA TYPHIMURIUM, Strain/Indicator: TA98, Metabolic Activation: RAT, LIVER, S-9, PCB, Method: PREINCUBATION) “inactive; negative”; under setting [5], “inactive; negative”; (Test System: AMES SALMONELLA TYPHIMURIUM, Strain/Indicator: TA100, Metabolic Activation: RAT, LIVER, S-9, PCB, Method: PREINCUBATION) “inactive; negative”.
As for `CCCCC(CC)COP(=O)(Oc1ccccc1)Oc1ccccc1` (configuration not stated), the mutagenic call reads like this: under setting [1], “inactive; negative”; under setting [2], “inactive; negative”; under setting [3], “inactive; negative”; under setting [4], “inactive; negative”; under setting [5], “inactive; negative”; under setting [6], “inactive; negative”. Further, the mutagenic call was “inactive; negative” under setting [7]; “inactive; negative” under setting [8]; “inactive; negative” under setting [9]; “inactive; negative” under setting [10]; “inactive; negative” under setting [11]; “inactive; negative” under setting [12].
As to `O=C1c2ccccc2-c2ccc([N+](=O)[O-])cc21`, the mutagenic call runs as follows: (Test System: AMES SALMONELLA TYPHIMURIUM, Strain/Indicator: TA98 (1,8-DNP6), Metabolic Activation: NONE, Method: PREINCUBATION) “active; positive”; (Test System: AMES SALMONELLA TYPHIMURIUM, Strain/Indicator: TA98(1,8-DNP6), Metabolic Activation: NONE, Method: STANDARD PLATE) “active; positive”; (Test System: AMES SALMONELLA TYPHIMURIUM, Strain/Indicator: TA98 (NR), Metabolic Activation: NONE, Method: PREINCUBATION) “active; positive”; (Test System: AMES SALMONELLA TYPHIMURIUM, Strain/Indicator: TA98(NR), Metabolic Activation: NONE, Method: STANDARD PLATE) “active; positive”; (Test System: AMES SALMONELLA TYPHIMURIUM, Strain/Indicator: TA98(NR), Metabolic Activation: RAT LIVER S-9 (10%), Method: PREINCUBATION) “active; positive”; (Test System: AMES SALMONELLA TYPHIMURIUM, Strain/Indicator: TA98(NR), Metabolic Activation: RAT LIVER S-9, 3-METHYLCHOLANTHRENE (10%), Method: PREINCUBATION) “active; positive”. Besides, the mutagenic call reads like this: (Test System: AMES SALMONELLA TYPHIMURIUM, Strain/Indicator: TA98(NR), Metabolic Activation: RAT LIVER S-9, BETA-NAPHTHAFLAVONE (10%), Method: PREINCUBATION) “active; positive”; (Test System: AMES SALMONELLA TYPHIMURIUM, Strain/Indicator: TA98(NR), Metabolic Activation: RAT LIVER S-9, PCB (10%), Method: PREINCUBATION) “active; positive”; (Test System: AMES SALMONELLA TYPHIMURIUM, Strain/Indicator: TA98(NR), Metabolic Activation: RAT LIVER S-9, PHENOBARBITAL (10%), Method: PREINCUBATION) “active; positive”; under setting [2], “active; positive”; (Test System: AMES SALMONELLA TYPHIMURIUM, Strain/Indicator: TA98, Metabolic Activation: NONE, Method: STANDARD PLATE) “active; positive”; (Test System: AMES SALMONELLA TYPHIMURIUM, Strain/Indicator: TA98, Metabolic Activation: RAT, LIVER, S-9, AROCLOR 1254, Method: STANDARD PLATE) “active; positive”. The mutagenic call was “active; positive” under setting [13]; “active; positive” (Test System: AMES SALMONELLA TYPHIMURIUM, Strain/Indicator: TA100, Metabolic Activation: RAT, LIVER, S-9, AROCLOR 1254, Method: STANDARD PLATE); “active; positive” (Test System: AMES SALMONELLA TYPHIMURIUM, Strain/Indicator: TA1538, Metabolic Activation: NONE); “inactive; negative” (Test System: AMES SALMONELLA TYPHIMURIUM, Strain/Indicator: TA7001, Metabolic Activation: NONE, Method: PREINCUBATION); “active; positive” (Test System: AMES SALMONELLA TYPHIMURIUM, Strain/Indicator: TA7002, Metabolic Activation: NONE, Method: PREINCUBATION); “inactive; negative” (Test System: AMES SALMONELLA TYPHIMURIUM, Strain/Indicator: TA7003, Metabolic Activation: NONE, Method: PREINCUBATION). In addition, the mutagenic call is “active; positive” (Test System: AMES SALMONELLA TYPHIMURIUM, Strain/Indicator: TA7004, Metabolic Activation: NONE, Method: PREINCUBATION); “active; positive” (Test System: AMES SALMONELLA TYPHIMURIUM, Strain/Indicator: TA7005, Metabolic Activation: NONE, Method: PREINCUBATION); “active; positive” (Test System: AMES SALMONELLA TYPHIMURIUM, Strain/Indicator: TA7006, Metabolic Activation: NONE, Method: PREINCUBATION); “active; positive” (Test System: AMES SALMONELLA TYPHIMURIUM, Strain/Indicator: YG7131, Metabolic Activation: NONE).
As for `O=C1OC(=C(Cl)Cl)C(Cl)=C1Cl`, the mutagenic call under setting [13] is “active; positive”.
`CCN(C(C)OC(C)=O)[N+](=O)[O-]` (configuration not stated): the mutagenic call (Test System: E. COLI, Strain/Indicator: WP2 (HCR-), Metabolic Activation: NONE) was “active; positive”.
